# Results published in the supplement of paper PMC10331698.
# ± gives the standard deviation of the averaged measurements.
# Legend:
# Assay in all cases: level (log10 ratio to DMSO vehicle control); higher = higher biomarker level / cell amount than vehicle control
# [1] = compound: O=C(O)CCC(F)(C(F)(F)F)C(F)(F)F [4,4-bis(Trifluoromethyl)-4-fluoropropanoic acid] (in DMSO)
# Protocol: (§1)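 BioMAP Diversity Plus panel of 12 human primary cell co-culture systems (3C, 4H, LPS, SAg, BT, BF4T, BE3C, CASM3C, HDF3CGF, KF3CT, MyoF, Mphg). Compounds were added 1 h before stimulation and left for 24 h (MyoF 48 h; BT 72 h for soluble read-outs or 6 d for IgG). Biomarkers were read by ELISA, cytotoxicity by SRB, PBMC viability and proliferation by Alamar Blue. Each well value was divided by the mean of 8 DMSO control wells on the same plate and log10 transformed; duplicate blinded samples were tested at 4 concentrations.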
# Perfluorononanoic acid = compound: O=C(O)C(F)(F)C(F)(F)C(F)(F)C(F)(F)C(F)(F)C(F)(F)C(F)(F)C(F)(F)F [Perfluorononanoic acid] (in DMSO)
# Protocol: as §1
# [2] = compound: O=C(O)C(F)(OC(F)(F)C(F)(OC(F)(F)C(F)(OC(F)(F)C(F)(F)C(F)(F)F)C(F)(F)F)C(F)(F)F)C(F)(F)F [Perfluoro-(2,5,8-trimethyl-3,6,9-trioxadodecanoic)acid] (in DMSO)
# Protocol: as §1
# [3] = compound: O=C(O)C(F)(F)OC(F)(F)C(F)(F)OC(F)(F)C(F)(F)OC(F)(F)C(F)(F)C(F)(F)C(F)(F)F [Perfluoro-3,6,9-trioxatridecanoic acid] (in DMSO); details: 6700 nM
# Protocol: as §1
# [4] = compound: OCC(F)(F)OC(F)(F)C(F)(F)OC(F)(F)C(F)(F)OC(F)(F)CO [1H,1H,11H,11H-Perfluorotetraethylene glycol] (in DMSO)
# Protocol: as §1
# [5] = compound: OCC(F)(F)C(F)(F)C(F)(F)C(F)F [1H,1H,5H-Perfluoropentanol] (in DMSO)
# Protocol: as §1
# [6] = compound: O=C(O)C(F)(OC(F)(F)C(F)(F)C(F)(F)F)C(F)(F)F [Ammonium perfluoro-2-methyl-3-oxahexanoate] (in Water)
# Protocol: as §1
# [7] = compound: C=C(C)C(=O)OCCC(F)(F)C(F)(F)C(F)(F)C(F)(F)C(F)(F)C(F)(F)C(F)(F)C(F)(F)F [8:2 Fluorotelomer methacrylate] (in DMSO)
# Protocol: as §1
Test System,level (log10) ([1]; 6700 nM),level (log10) ([1]; 20000 nM),level (log10) ([1]; 60000 nM),level (log10) (Perfluorononanoic acid; 6700 nM),level (log10) (Perfluorononanoic acid; 20000 nM),level (log10) ([2]; 1100 nM),level (log10) ([2]; 3300 nM),level (log10) ([2]; 10000 nM),level (log10) [3],level (log10) ([4]; 6700 nM),level (log10) ([4]; 20000 nM),level (log10) ([4]; 60000 nM),level (log10) ([5]; 6700 nM),level (log10) ([5]; 20000 nM),level (log10) ([5]; 60000 nM),level (log10) ([6]; 6700 nM),level (log10) ([6]; 20000 nM),level (log10) ([6]; 60000 nM),level (log10) ([7]; 6700 nM),level (log10) ([7]; 20000 nM)
HDF3CGF:TIMP-2,-0.042 ± 0.052,-0.041 ± 0.045,-0.0265 ± 0.013,0.0105 ± 0.033,0.0805 ± 0.026,0.011 ± 0.0042,-0.0035 ± 0.0064,-0.013 ± 0.047,-0.291 ± 0.005,-0.0285 ± 0.011,-0.046 ± 0.11,-0.121 ± 0.07,-0.0525 ± 0.086,-0.0265 ± 0.067,-0.0175 ± 0.087,0.0405 ± 0.07,0.0435 ± 0.013,-0.0185 ± 0.079,-0.001 ± 0.013,-0.0395 ± 0.012
MyoF:Collagen I,-0.0045 ± 0.012,-0.0065 ± 0.0092,0.008 ± 0.0028,-0.017 ± 0.059,-0.101 ± 0.027,-0.0495 ± 0.026,-0.0365 ± 0.0021,-0.03 ± 0.0071,-0.598 ± 0.0057,-0.0005 ± 0.026,0.001 ± 0.03,-0.0495 ± 0.016,-0.003 ± 0.0057,0.021 ± 0.041,0.0305 ± 0.052,-0.0135 ± 0.061,-0.024 ± 0.024,-0.027 ± 0.031,-0.0335 ± 0.015,-0.0125 ± 0.0035
HDF3CGF:Proliferation 72hr,-0.0275 ± 0.035,0.0025 ± 0.028,0.037 ± 0.0014,0.143 ± 0.036,-0.182 ± 0.24,-0.0205 ± 0.011,0.038 ± 0.0099,0.0395 ± 0.028,-0.827 ± 0.29,-0.125 ± 0.1,-0.178 ± 0.12,-0.358 ± 0.064,-0.023 ± 0.058,0.035 ± 0.024,0.0065 ± 0.025,0.0575 ± 0.057,0.0635 ± 0.066,-0.0255 ± 0.056,-0.0395 ± 0.028,-0.043 ± 0.069
3C:CD142/Tissue Factor,0.024 ± 0.0099,0.0115 ± 0.0078,-0.002 ± 0.023,-0.0555 ± 0.0021,-0.0455 ± 0.032,-0.013 ± 0.0042,-0.0055 ± 0.015,-0.005 ± 0.013,-0.0085 ± 0.03,-0.0315 ± 0.037,-0.009 ± 0.0014,-0.013 ± 0.05,-0.0095 ± 0.00071,-0.014 ± 0.025,0.021 ± 0.0085,0.0735 ± 0.012,0.0805 ± 0.0078,0.0805 ± 0.00071,0.0445 ± 0.047,0.0595 ± 0.022
HDF3CGF:MMP-1,0.0015 ± 0.015,-0.0075 ± 0.029,-0.0145 ± 0.054,-0.008 ± 0.0099,-0.012 ± 0.0042,0.029 ± 0.018,0.023 ± 0.0028,-0.0075 ± 0.0021,-0.134 ± 0.054,0.0265 ± 0.0092,0.0845 ± 0.021,0.095 ± 0.0014,0.0075 ± 0.005,0.007 ± 0.0085,0.0105 ± 0.022,0.0035 ± 0.016,0.011,0.008 ± 0.0085,0.013 ± 0.011,0.009 ± 0.018
MyoF:Collagen III,-0.0045 ± 0.011,-0.0205 ± 0.021,0.003 ± 0.02,-0.004 ± 0.0071,-0.0355 ± 0.018,-0.008 ± 0.021,0.0155 ± 0.00071,0.006,-0.894 ± 0.12,-0.002,-0.0085 ± 0.011,-0.0415 ± 0.0078,-0.0005 ± 0.0092,0.0295 ± 0.015,0.037 ± 0.045,0.0135 ± 0.0035,0.006 ± 0.023,-0.035 ± 0.034,-0.029 ± 0.017,-0.005 ± 0.028
KF3CT:uPA,0.001 ± 0.0071,-0.0145 ± 0.028,-0.004 ± 0.023,0.0005 ± 0.018,0.009 ± 0.011,0.01,0.0045 ± 0.021,0.0075 ± 0.005,0.027 ± 0.0057,0.005 ± 0.0057,0.018 ± 0.0099,0.024 ± 0.031,0.0035 ± 0.0092,-0.0315 ± 0.03,0.0375 ± 0.005,-0.0275 ± 0.043,-0.009 ± 0.0099,-0.0175 ± 0.019,-0.0095 ± 0.00071,-0.0205 ± 0.012
CASM3C:Serum Amyloid A,-0.008 ± 0.013,0.064 ± 0.059,0.159 ± 0.0057,-0.014 ± 0.018,-0.012 ± 0.048,-0.005 ± 0.014,0.0105 ± 0.036,0.04 ± 0.03,-0.0305 ± 0.013,0.0105 ± 0.0092,-0.0065 ± 0.00071,0.002 ± 0.045,-0.077 ± 0.014,-0.058 ± 0.044,-0.0135 ± 0.049,-0.031 ± 0.04,-0.034 ± 0.03,-0.0005 ± 0.049,-0.045 ± 0.0057,-0.02 ± 0.078
lMphg:CCL2/MCP-1,-0.01 ± 0.017,0.0105 ± 0.0064,0.011 ± 0.017,0.0105 ± 0.0064,0.0325 ± 0.03,0.0025 ± 0.012,-0.0095 ± 0.0078,-0.0125 ± 0.018,0.001 ± 0.014,-0.0285 ± 0.032,-0.079 ± 0.034,-0.073 ± 0.052,-0.0185 ± 0.00071,0.008 ± 0.02,0.0075 ± 0.012,0.0165 ± 0.005,0.0125 ± 0.012,0.038 ± 0.027,-0.032,-0.012 ± 0.014
CASM3C:CXCL8/IL-8,-0.0115 ± 0.012,-0.0135 ± 0.012,-0.0195 ± 0.005,0.0075 ± 0.013,0.031 ± 0.033,-0.0025 ± 0.021,-0.015 ± 0.025,0.0105 ± 0.0035,0.002 ± 0.0085,0.002 ± 0.016,-0.0085 ± 0.016,-0.004 ± 0.011,-0.0025 ± 0.021,0.0065 ± 0.047,0.015 ± 0.059,0.005 ± 0.0042,0.034 ± 0.024,0.056 ± 0.024,-0.011 ± 0.0057,-0.0055 ± 0.028
HDF3CGF:SRB,-0.0385 ± 0.07,-0.0245 ± 0.042,0.045 ± 0.041,0.014 ± 0.0014,-0.0155 ± 0.026,-0.009 ± 0.023,0.0075 ± 0.011,0.027 ± 0.0071,-0.107 ± 0.0021,-0.0225 ± 0.043,-0.023 ± 0.1,-0.0555 ± 0.077,-0.0275 ± 0.0064,-0.0025 ± 0.03,-0.0015 ± 0.037,-0.033 ± 0.02,-0.0325 ± 0.0021,-0.0175 ± 0.011,-0.021 ± 0.055,-0.0015 ± 0.046
KF3CT:CCL2/MCP-1,-0.011 ± 0.0057,-0.0145 ± 0.03,0.0015 ± 0.0092,-0.0975 ± 0.012,-0.157 ± 0.03,-0.017 ± 0.0099,-0.049 ± 0.025,0.011 ± 0.0099,-0.295 ± 0.023,-0.025 ± 0.024,-0.044 ± 0.024,-0.005 ± 0.0042,0.0055 ± 0.026,-0.0495 ± 0.087,0.007 ± 0.13,0.086 ± 0.0057,0.088 ± 0.023,0.0775 ± 0.018,-0.0235 ± 0.00071,-0.008 ± 0.033
BE3C:MMP-9,0.0085 ± 0.035,-0.024 ± 0.0042,-0.003 ± 0.03,-0.0075 ± 0.00071,0.0055 ± 0.011,-0.0155 ± 0.0092,-0.011 ± 0.0071,-0.0145 ± 0.011,-0.4295 ± 0.0021,0 ± 0.017,-0.0345 ± 0.0021,-0.0795 ± 0.0035,-0.009 ± 0.016,0.0235 ± 0.018,0.0175 ± 0.022,-0.109 ± 0.051,-0.09 ± 0.03,-0.063 ± 0.035,-0.0125 ± 0.06,-0.024 ± 0.085
